≈ marks a conversion by molar mass, not a printed value. Values belong to the molecule of their own block, whether it stands above or below them.
How the values were obtained:
Staphylococcus aureus [1] = assay: Antibacterial activity against Staphylococcus aureus NCTC 4163 after 18 hrs by CLSI disc diffusion method; format: functional; conditions: NCTC 4163, 18 h
Staphylococcus aureus [2] = assay: Antibacterial activity against Staphylococcus aureus ATCC 25923 after 18 hrs by CLSI disc diffusion method; format: functional; conditions: ATCC 25923, 18 h
Staphylococcus aureus [3] = assay: Antibacterial activity against Staphylococcus aureus ATCC 6538 after 18 hrs by CLSI disc diffusion method; format: functional; conditions: ATCC 6538, 18 h
[4] = test system: Staphylococcus epidermidis; assay: Antibacterial activity against Staphylococcus epidermidis ATCC 12228 after 18 hrs by CLSI disc diffusion method; format: functional; conditions: ATCC 12228, 18 h
[5] = test system: Staphylococcus epidermidis; assay: Antibacterial activity against Staphylococcus epidermidis ATCC 35984 after 18 hrs by CLSI […] method; format: functional; conditions: ATCC 35984, 18 h
Bacillus spizizenii = assay: Antibacterial activity against Bacillus subtilis ATCC 6633 after 18 hrs by CLSI disc diffusion method; format: functional; conditions: ATCC 6633, 18 h
Bacillus cereus = assay: Antibacterial activity against Bacillus cereus ATCC 11778 after 18 hrs by CLSI disc diffusion method; format: functional; conditions: ATCC 11778, 18 h
Enterococcus hirae = assay: Antibacterial activity against Enterococcus hirae ATCC 10541 after 18 hrs by CLSI disc diffusion method; format: functional; conditions: ATCC 10541, 18 h
Enterococcus faecalis = assay: Antibacterial activity against Enterococcus faecalis ATCC 29212 after 18 hrs by CLSI disc diffusion method; format: functional; conditions: ATCC 29212, 18 h
Micrococcus luteus [6] = assay: Antibacterial activity against Micrococcus luteus ATCC 10240 after 18 hrs by CLSI disc diffusion method; format: functional; conditions: ATCC 10240, 18 h
Micrococcus luteus [7] = assay: Antibacterial activity against Micrococcus luteus ATCC 9341 after 18 hrs by CLSI disc diffusion method; format: functional; conditions: ATCC 9341, 18 h
Escherichia coli [8] = assay: Antibacterial activity against Escherichia coli ATCC 10538 after 18 hrs by CLSI disc diffusion method; format: functional; conditions: ATCC 10538, 18 h
Proteus vulgaris = assay: Antibacterial activity against Proteus vulgaris NCTC 4635 after 18 hrs by CLSI disc diffusion method; format: functional; conditions: NCTC 4635, 18 h
Pseudomonas aeruginosa [9] = assay: Antibacterial activity against Pseudomonas aeruginosa ATCC 15442 after 18 hrs by CLSI disc diffusion method; format: functional; conditions: ATCC 15442, 18 h
Pseudomonas aeruginosa [10] = assay: Antibacterial activity against Pseudomonas aeruginosa ATCC 27853 after 18 hrs by CLSI disc diffusion method; format: functional; conditions: ATCC 27853, 18 h
[11] = test system: Bordetella bronchiseptica; assay: Antibacterial activity against Bordetella bronchiseptica ATCC 4617 after 18 hrs by CLSI disc diffusion method; format: functional; conditions: ATCC 4617, 18 h
Staphylococcus aureus [12] = assay: Antibacterial activity against Staphylococcus aureus 495 after 18 hrs by CLSI disc diffusion method; format: functional; conditions: Staphylococcus aureus, 495, 18 h
Staphylococcus aureus [13] = assay: Antibacterial activity against Staphylococcus aureus 496 after 18 hrs by CLSI disc diffusion method; format: functional; conditions: Staphylococcus aureus, 496, 18 h
Staphylococcus aureus [14] = assay: Antibacterial activity against Staphylococcus aureus 497 after 18 hrs by CLSI disc diffusion method; format: functional; conditions: Staphylococcus aureus, 497, 18 h
Staphylococcus aureus [15] = assay: Antibacterial activity against Staphylococcus aureus 498 after 18 hrs by CLSI disc diffusion method; format: functional; conditions: Staphylococcus aureus, 498, 18 h
Staphylococcus aureus [16] = assay: Antibacterial activity against Staphylococcus aureus 537 after 18 hrs by CLSI disc diffusion method; format: functional; conditions: Staphylococcus aureus, 537, 18 h
Staphylococcus aureus [17] = assay: Antibacterial activity against Staphylococcus aureus 572 after 18 hrs by CLSI disc diffusion method; format: functional; conditions: Staphylococcus aureus, 572, 18 h
Staphylococcus aureus [18] = assay: Antibacterial activity against Staphylococcus aureus 585 after 18 hrs by CLSI disc diffusion method; format: functional; conditions: Staphylococcus aureus, 585, 18 h
Staphylococcus aureus [19] = assay: Antibacterial activity against Staphylococcus aureus 586 after 18 hrs by CLSI disc diffusion method; format: functional; conditions: Staphylococcus aureus, 586, 18 h
[20] = test system: Staphylococcus epidermidis; assay: Antibacterial activity against Staphylococcus epidermidis 423 after 18 hrs by CLSI disc diffusion method; format: functional; conditions: Staphylococcus epidermidis, 423, 18 h
[21] = test system: Staphylococcus epidermidis; assay: Antibacterial activity against Staphylococcus epidermidis 431 after 18 hrs by CLSI disc diffusion method; format: functional; conditions: Staphylococcus epidermidis, 431, 18 h
[22] = test system: Staphylococcus epidermidis; assay: Antibacterial activity against Staphylococcus epidermidis 432 after 18 hrs by CLSI disc diffusion method; format: functional; conditions: Staphylococcus epidermidis, 432, 18 h
[23] = test system: Staphylococcus epidermidis; assay: Antibacterial activity against Staphylococcus epidermidis 433 after 18 hrs by CLSI disc diffusion method; format: functional; conditions: Staphylococcus epidermidis, 433, 18 h
[24] = test system: Staphylococcus epidermidis; assay: Antibacterial activity against Staphylococcus epidermidis 469 after 18 hrs by CLSI disc diffusion method; format: functional; conditions: Staphylococcus epidermidis, 469, 18 h
[25] = test system: Staphylococcus epidermidis; assay: Antibacterial activity against Staphylococcus epidermidis 471 after 18 hrs by CLSI disc diffusion method; format: functional; conditions: Staphylococcus epidermidis, 471, 18 h
[26] = test system: Staphylococcus epidermidis; assay: Antibacterial activity against Staphylococcus epidermidis 510 after 18 hrs by CLSI disc diffusion method; format: functional; conditions: Staphylococcus epidermidis, 510, 18 h
[27] = test system: Staphylococcus epidermidis; assay: Antibacterial activity against Staphylococcus epidermidis 511 after 18 hrs by CLSI disc diffusion method; format: functional; conditions: Staphylococcus epidermidis, 511, 18 h
Pseudomonas aeruginosa [28] = assay: Antibacterial activity against Pseudomonas aeruginosa 6m after 18 hrs by CLSI disc diffusion method; format: functional
Pseudomonas aeruginosa [29] = assay: Antibacterial activity against Pseudomonas aeruginosa 7m after 18 hrs by CLSI disc diffusion method; format: functional
Pseudomonas aeruginosa [30] = assay: Antibacterial activity against Pseudomonas aeruginosa 10m after 18 hrs by CLSI disc diffusion method; format: functional
Pseudomonas aeruginosa [31] = assay: Antibacterial activity against Pseudomonas aeruginosa 11m after 18 hrs by CLSI disc diffusion method; format: functional
Pseudomonas aeruginosa [32] = assay: Antibacterial activity against Pseudomonas aeruginosa 12m after 18 hrs by CLSI disc diffusion method; format: functional
Pseudomonas aeruginosa [33] = assay: Antibacterial activity against Pseudomonas aeruginosa 16m after 18 hrs by CLSI disc diffusion method; format: functional
Pseudomonas aeruginosa [34] = assay: Antibacterial activity against Pseudomonas aeruginosa 18m after 18 hrs by CLSI disc diffusion method; format: functional
Pseudomonas aeruginosa [35] = assay: Antibacterial activity against Pseudomonas aeruginosa 31m after 18 hrs by CLSI disc diffusion method; format: functional
Escherichia coli [36] = assay: Antibacterial activity against Escherichia coli ML 5 after 18 hrs by CLSI disc diffusion method; format: functional; conditions: ML 5, 18 h
Escherichia coli [37] = assay: Antibacterial activity against Escherichia coli ML 6 after 18 hrs by CLSI disc diffusion method; format: functional; conditions: ML 6, 18 h
Escherichia coli [38] = assay: Antibacterial activity against Escherichia coli ML 8 after 18 hrs by CLSI disc diffusion method; format: functional; conditions: ML 8, 18 h
Escherichia coli [39] = assay: Antibacterial activity against Escherichia coli ML 9 after 18 hrs by CLSI disc diffusion method; format: functional; conditions: ML 9, 18 h
Escherichia coli [40] = assay: Antibacterial activity against Escherichia coli ML 12 after 18 hrs by CLSI disc diffusion method; format: functional; conditions: ML 12, 18 h
Escherichia coli [41] = assay: Antibacterial activity against Escherichia coli ML 15 after 18 hrs by CLSI disc diffusion method; format: functional; conditions: ML 15, 18 h
Escherichia coli [42] = assay: Antibacterial activity against Escherichia coli ML 16 after 18 hrs by CLSI disc diffusion method; format: functional; conditions: ML 16, 18 h
Escherichia coli [43] = assay: Antibacterial activity against Escherichia coli ML 17 after 18 hrs by CLSI disc diffusion method; format: functional; conditions: ML 17, 18 h
A549 = assay: Cytotoxicity activity against human A549 cells assessed as reduction in cell viability after 72 hrs by MTT assay; format: cell-based; conditions: A549, 72 h
HaCaT = assay: Cytotoxicity activity against human HaCaT cells assessed as reduction in cell viability after 72 hrs by MTT assay; format: cell-based
[44] = Selectivity index, ratio of IC50 for human HaCaT cells to MIC for Staphylococcus aureus NCTC 4163; format: toxicity; conditions: read-out: Selectivity Index
[45] = Selectivity index, ratio of IC50 for human HaCaT cells to MIC for Bacillus subtilis ATCC 6633; format: toxicity; conditions: read-out: Selectivity Index
[46] = Selectivity index, ratio of IC50 for human HaCaT cells to MIC for Enterococcus hirae ATCC 10541; format: toxicity; conditions: read-out: Selectivity Index
[47] = Selectivity index, ratio of IC50 for human HaCaT cells to MIC for Micrococcus luteus ATCC 10240; format: toxicity; conditions: read-out: Selectivity Index
[48] = Selectivity index, ratio of IC50 for human HaCaT cells to MIC for Escherichia coli ATCC 10538; format: toxicity; conditions: read-out: Selectivity Index
[49] = Selectivity index, ratio of IC50 for human HaCaT cells to MIC for Proteus vulgaris NCTC 4635; format: toxicity; conditions: read-out: Selectivity Index
[50] = Selectivity index, ratio of IC50 for human HaCaT cells to MIC for Bordetella bronchiseptica ATCC 4617; format: toxicity; conditions: read-out: Selectivity Index
DNA gyrase = DNA gyrase (Staphylococcus aureus, UniProt P0A0K8+P20831); assay: Inhibition of Staphylococcus aureus DNA gyrase supercoiling activity using pBR322 DNA as substrate after 30 mins by ethidium bromide staining based agarose gel electrophoresis method; format: protein-complex assay
[51] = Inhibition of Staphylococcus aureus DNA topoisomerase 4 using Kinetoplast DNA as substrate after 30 mins by ethidium bromide staining based agarose gel electrophoresis method

MIC (Staphylococcus aureus [1]): 7 µM (≈ 2.06 µg/mL)
MIC (Staphylococcus aureus [2]): 7 µM (≈ 2.06 µg/mL)
MIC (Staphylococcus aureus [3]): 7 µM (≈ 2.06 µg/mL)
MIC [4]: 7 µM (≈ 2.06 µg/mL)
MIC [5]: 3 µM (≈ 0.881 µg/mL)
MIC (Bacillus spizizenii): 3 µM (≈ 0.881 µg/mL)
MIC (Bacillus cereus): 3 µM (≈ 0.881 µg/mL)
MIC (Enterococcus hirae): 14 µM (≈ 4.11 µg/mL)
MIC (Enterococcus faecalis): 7 µM (≈ 2.06 µg/mL)
MIC (Micrococcus luteus [6]): 1 µM (≈ 0.294 µg/mL)
MIC (Micrococcus luteus [7]): 1 µM (≈ 0.294 µg/mL)
MIC (Escherichia coli [8]): 7 µM (≈ 2.06 µg/mL)
MIC (Proteus vulgaris): 1 µM (≈ 0.294 µg/mL)
MIC (Pseudomonas aeruginosa [9]): 218 µM (≈ 64 µg/mL)
MIC (Pseudomonas aeruginosa [10]): 7 µM (≈ 2.06 µg/mL)
MIC [11]: 7 µM (≈ 2.06 µg/mL)
MIC (Staphylococcus aureus [12]): 7 µM (≈ 2.06 µg/mL)
MIC (Staphylococcus aureus [13]): 7 µM (≈ 2.06 µg/mL)
MIC (Staphylococcus aureus [14]): 14 µM (≈ 4.11 µg/mL)
MIC (Staphylococcus aureus [15]): 7 µM (≈ 2.06 µg/mL)
MIC (Staphylococcus aureus [16]): 7 µM (≈ 2.06 µg/mL)
MIC (Staphylococcus aureus [17]): 14 µM (≈ 4.11 µg/mL)
MIC (Staphylococcus aureus [18]): 14 µM (≈ 4.11 µg/mL)
MIC (Staphylococcus aureus [19]): 14 µM (≈ 4.11 µg/mL)
MIC [20]: 14 µM (≈ 4.11 µg/mL)
MIC [21]: 7 µM (≈ 2.06 µg/mL)
MIC [22]: 7 µM (≈ 2.06 µg/mL)
MIC [23]: 14 µM (≈ 4.11 µg/mL)
MIC [24]: 7 µM (≈ 2.06 µg/mL)
MIC [25]: 7 µM (≈ 2.06 µg/mL)
MIC [26]: 14 µM (≈ 4.11 µg/mL)
MIC [27]: 14 µM (≈ 4.11 µg/mL)
MIC (Pseudomonas aeruginosa [28]): 7 µM (≈ 2.06 µg/mL)
MIC (Pseudomonas aeruginosa [29]): 7 µM (≈ 2.06 µg/mL)
MIC (Pseudomonas aeruginosa [30]): 27 µM (≈ 7.93 µg/mL)
MIC (Pseudomonas aeruginosa [31]): 27 µM (≈ 7.93 µg/mL)
MIC (Pseudomonas aeruginosa [32]): 7 µM (≈ 2.06 µg/mL)
MIC (Pseudomonas aeruginosa [33]): 14 µM (≈ 4.11 µg/mL)
MIC (Pseudomonas aeruginosa [34]): 14 µM (≈ 4.11 µg/mL)
MIC (Pseudomonas aeruginosa [35]): 7 µM (≈ 2.06 µg/mL)
MIC (Escherichia coli [36]): 7 µM (≈ 2.06 µg/mL)
MIC (Escherichia coli [37]): 54 µM (≈ 15.9 µg/mL)
MIC (Escherichia coli [38]): 7 µM (≈ 2.06 µg/mL)
MIC (Escherichia coli [39]): 14 µM (≈ 4.11 µg/mL)
MIC (Escherichia coli [40]): 54 µM (≈ 15.9 µg/mL)
MIC (Escherichia coli [41]): 54 µM (≈ 15.9 µg/mL)
MIC (Escherichia coli [42]): 7 µM (≈ 2.06 µg/mL)
MIC (Escherichia coli [43]): 7 µM (≈ 2.06 µg/mL)
IC50 (DNA gyrase): 3.06 µM
IC50 [51]: 2.6 µg/mL (≈ 8.85 µM)
Compound: Fc1ccc(-n2nnnc2NCc2ccco2)cc1Cl
IC50 (A549): 80 µM
IC50 (HaCaT): 84 µM
selectivity ratio [44]: 12
selectivity ratio [45]: 28
selectivity ratio [46]: 6
selectivity ratio [47]: 84
selectivity ratio [48]: 12
selectivity ratio [49]: 84
selectivity ratio [50]: 12

IC50 [51]: 1.7 µg/mL (≈ 5.13 µM)
Compound: O=C(O)c1cn(C2CC2)c2cc(N3CCNCC3)c(F)cc2c1=O [CIPROFLOXACIN]
